Assay results published in patent US8624034B2, “Fluoro-pyridinone derivatives useful as antibacterial agents” (Pfizer Inc., priority 2011, dated 2014).
Values after ≈ are worked out from the molar mass of the structure shown. Values joined by “and” are separate entries in the source; they are usually repeats but may differ in a detail not shown here. Equal entries are not always repeated.

What was measured:
[1] = target: T1, Pseudomonas aeruginosa LpxC enzyme (Pseudomonas aeruginosa, UniProt P47205); assay: IC50 assay, LpxC enzyme from P. aeruginosa (PA LpxC enzyme IC50); type: biochemical; details: Table 3; LpxC enzyme 0.1 nM, 25° C., 1 hour; read-out: PA:IC50
T1 construct: made in house; host or cells: E. coli
T1 sequence (P47205 1-303): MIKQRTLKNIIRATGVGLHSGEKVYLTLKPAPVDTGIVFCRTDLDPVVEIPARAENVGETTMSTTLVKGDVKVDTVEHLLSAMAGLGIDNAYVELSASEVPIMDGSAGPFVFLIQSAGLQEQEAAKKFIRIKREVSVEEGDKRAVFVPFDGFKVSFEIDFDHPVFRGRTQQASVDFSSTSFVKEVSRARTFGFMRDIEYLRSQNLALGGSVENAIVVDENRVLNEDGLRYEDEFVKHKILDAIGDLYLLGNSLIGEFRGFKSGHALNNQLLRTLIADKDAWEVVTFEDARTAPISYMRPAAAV
Method: In order to assess the compounds biological activity, selected in vitro assays were conducted on selected compounds. One of the assays measured the compounds ability to disrupt the synthesis of lipopolysaccharide, LPS, which is a component of the outer membrane of Gram-negative bacteria. Disruption of this synthesis is lethal to the bacteria. The assay determined the compound's ability to inhibit LpxC, which is the first enzyme in the biosynthetic pathway for LPS (measured as IC50). Additionally, MICs (minimal inhibitory concentrations) were determined for several bacteria. The specific protocols are described below:
A) IC50 Assay, LpxC Enzyme from P. aeruginosa (Labeled as PA LpxC Enzyme IC50):
At the end of 1 hour, 5 ul of 1 N HCl was added to stop the enzyme reaction, the plates were centrifuged, and then processed with the BioTrove Rapidfire HTMS Mass Spectrometry System. A no-enzyme control was used in calculating the IC50 values from the percent conversion values.

[2] = tested on: Acinetobacter baumannii/haemolyticus, multidrug-resistant clinical isolate (AB-3167); assay: MIC determination, AB-3167; type: cell-based; details: Table 3, lower of duplicate values
Method: (§1) The in vitro antibacterial activity of compounds described in the Examples was evaluated by minimum inhibitory concentration (MIC) testing according to Clinical and Laboratory Standards Institute (CLSI). See: Clinical and Laboratory Standards Institute. Methods for Dilution Antimicrobial Susceptibility Tests for Bacteria that Grow Aerobically; Approved Standard-Eighth Edition. CLSI document M7-A8 [ISBN 1-56238-689-1]. Clinical and Laboratory Standards Institute, 940 West Valley Road, Suite 1400, Wayne, Pa. 19087-1898 USA, 2006; also Clinical and Laboratory Standards Institute. Performance Standards for Antimicrobial Susceptibility Testing; Twentieth Informational Supplement. CLSI document M100-S20 [ISBN 1-56238-716-2]. Clinical and Laboratory Standards Institute.
(§2) The MIC determination is a standard laboratory method for evaluating the antibacterial activity of a compound. The MIC represents the lowest drug concentration that inhibits visible growth of bacteria following overnight incubation. […] Typically, the drug concentration range is broken down into 2-fold increments (e.g. 0.06 μg/mL, 0.12 μg/mL. 0.25 μg/mL, 0.50 μg/mL, 1.0 μg/mL, etc.) and the various drug concentrations are all individually incubated overnight with approximately the same number of bacteria. The MIC is then determined by visually inspecting the drug effect at each concentration, and identifying the lowest drug concentration that has inhibited bacterial growth as compared to the drug free control. Typically, bacteria continue to grow at drug concentrations lower than the MIC and don't grow at concentrations at and above the MIC.
(§3) The MIC values described in Table 2 and 3 below were derived from assays wherein each test compound was evaluated in duplicate. In cases where the duplicate values varied by 0-2-fold, the lower of the two values was reported below. Generally speaking, if the duplicate values varied by more than 2-fold, the assay was considered non-valid and was repeated until the variation between duplicate runs was ≦2-fold. In line with the CLSI guidelines referred to above, both control organisms and reference compounds were utilized in each MIC assay to provide proper quality control. MIC values generated with these control organisms and reference compounds were required to fall within a defined range for the assay to be considered valid and be included herein. Those skilled in the art will recognize that MIC values can and do vary from experiment to experiment. Generally speaking, it should be recognized that MIC values often vary +/−2-fold from experiment to experiment. While a single MIC is reported for each compound and each microorganism, the reader should not conclude that each compound was only tested once. Several of the compounds were subjected to multiple tests. The data reported in Tables 2 and 3 is reflective of the compounds relative activity and different MICs may have been generated on these occasions in line with the guidelines described above.
(§4) The following bacterial strains were used in these MIC determinations:
2) Acinetobacter baumannii/haemolyticus: Multidrug-resistant clinical isolate labeled as AB-3167 in Tables 2 and 3;

[3] = tested on: Escherichia coli EC-1: VOGEL, mouse virulent; assay: MIC determination, EC-1; type: cell-based; details: for MIC: Escherichia coli, read-out: EC-1 (MIC), Table 3, lower of duplicate values
Method: as §1, §2, §3, §4
3) Escherichia coli EC-1: VOGEL, mouse virulent labeled as EC-1 in Tables 2 and 3;

PA:UC12120 = assay: MIC determination, PA:UC12120 (Table 3); type: cell-based, Pseudomonas aeruginosa; details: for MIC: Pseudomonas aeruginosa, UC12120, Table 3, lower of duplicate values
Method: as §1, §2, §3
In Table 3 below, column 1 corresponds to the Example number, column 2 provides the IUPAC name, columns 3-6 provide in vitro biological data generated in the same manner as in Table 2, columns 7 and 8 provide the retention times and mass spectra generated via LCMS, using the method described below. All data is not currently available for all compounds, as indicated by a blank cell in Table 3.

[4] = Table 3, lower of duplicate values

Structure (SMILES)	IC50 [1]	MIC [2]	MIC [3]	MIC (PA:UC12120)	EC-1 (MIC) [3, 4]	PA:UC12120 (MIC) (PA:UC12120; [4])
COc1cccc(-c2cc(=O)n(CCC(C)(C(=O)NO)S(C)(=O)=O)cc2F)c1 (centres unmarked) [Example 100, 4-[5-fluoro-4-(3-methoxyphenyl)-2-oxopyridin-1(2H)-yl]-N-hydroxy-2-methyl-2-(methylsulfonyl)butanamide]	2.5 nM	> 64 µg/mL	4 µg/mL (≈ 9.7 µM)	2 µg/mL (≈ 4.85 µM)		
CCOc1cccc(-c2cc(=O)n(CCC(C)(C(=O)NO)S(C)(=O)=O)cc2F)c1 (centres unmarked) [Example 112, 4-[4-(3-ethoxyphenyl)-5-fluoro-2-oxopyridin-1(2H)-yl]-N-hydroxy-2-methyl-2-(methylsulfonyl)butanamide]	3.1 nM	> 64 µg/mL	2 µg/mL (≈ 4.69 µM)	4 µg/mL (≈ 9.38 µM)		
CC(CCn1cc(F)c(-c2cccnc2)cc1=O)(C(=O)NO)S(C)(=O)=O (centres unmarked) [Example 65, 4-(5′-fluoro-2′-oxo-3,4′-bipyridin-1′(2′H)-yl)-N-hydroxy-2-methyl-2-(methylsulfonyl)butanamide]	82.3 nM	> 64 µg/mL	> 64 µg/mL	32 µg/mL (≈ 83.5 µM)		
CC(CCn1cc(F)c(-c2ccccc2F)cc1=O)(C(=O)NO)S(C)(=O)=O (centres unmarked) [Example 103, 4-[5-fluoro-4-(2-fluorophenyl)-2-oxopyridin-1(2H)-yl]-N-hydroxy-2-methyl-2-(methylsulfonyl)butanamide]	1.4 nM	> 64 µg/mL	4 µg/mL (≈ 9.99 µM)	0.5 µg/mL (≈ 1.25 µM)		
CC(CCn1cc(F)c(-c2ccc(Cl)c(O)c2)cc1=O)(C(=O)NO)S(C)(=O)=O (centres unmarked) [Example 109, 4-[4-(4-chloro-3-hydroxyphenyl)-5-fluoro-2-oxopyridin-1(2H)-yl]-N-hydroxy-2-methyl-2-(methylsulfonyl)butanamide]	7.3 nM	> 64 µg/mL	32 µg/mL (≈ 73.9 µM)	32 µg/mL (≈ 73.9 µM)		
CC(CCn1cc(F)c(-c2cccc(F)c2)cc1=O)(C(=O)NO)S(C)(=O)=O (centres unmarked) [Example 116, 4-[5-fluoro-4-(3-fluorophenyl)-2-oxopyridin-1(2H)-yl]-N-hydroxy-2-methyl-2-(methylsulfonyl)butanamide]	1 nM	> 64 µg/mL	4 µg/mL (≈ 9.99 µM)	1 µg/mL (≈ 2.5 µM)		
CC(C)Oc1ncccc1-c1cc(=O)n(CCC(C)(C(=O)NO)S(C)(=O)=O)cc1F (centres unmarked) [Example 104, 4-(5′-fluoro-2-isopropoxy-2′-oxo-3,4′-bipyridin-1′(2′H)-yl)-N-hydroxy-2-methyl-2-(methylsulfonyl)butanamide]	> 100 nM	32 µg/mL (≈ 72.5 µM)	8 µg/mL (≈ 18.1 µM)	32 µg/mL (≈ 72.5 µM)		
Cc1cc(-c2cc(=O)n(CCC(C)(C(=O)NO)S(C)(=O)=O)cc2F)ccc1C#N (centres unmarked) [Example 114, 4-[4-(4-cyano-3-methylphenyl)-5-fluoro-2-oxopyridin-1(2H)-yl]-N-hydroxy-2-methyl-2-(methylsulfonyl)butanamide]	1.3 nM	> 64 µg/mL	4 µg/mL (≈ 9.49 µM)	2 µg/mL (≈ 4.75 µM)		
CC(CCn1cc(F)c(-c2ccc(C#N)nc2)cc1=O)(C(=O)NO)S(C)(=O)=O (centres unmarked) [Example 70, 4-(6-cyano-5′-fluoro-2′-oxo-3,4′-bipyridin-1′(2′H)-yl)-N-hydroxy-2-methyl-2-(methylsulfonyl)butanamide]	33.3 nM	> 64 µg/mL	> 64 µg/mL	64 µg/mL (≈ 157 µM)		
CCOc1ccc(-c2cc(=O)n(CCC(C)(C(=O)NO)S(C)(=O)=O)cc2F)cc1 (centres unmarked) [Example 76, 4-[4-(4-ethoxyphenyl)-5-fluoro-2-oxopyridin-1(2H)-yl]-N-hydroxy-2-methyl-2-(methylsulfonyl)butanamide]	1.1 nM	> 64 µg/mL	0.25 µg/mL (≈ 0.586 µM)	0.5 µg/mL (≈ 1.17 µM)		
CC(CCn1cc(F)c(-c2ccc(Cl)cc2)cc1=O)(C(=O)NO)S(C)(=O)=O (centres unmarked) [Example 107, 4-[4-(4-chlorophenyl)-5-fluoro-2-oxopyridin-1(2H)-yl]-N-hydroxy-2-methyl-2-(methylsulfonyl)butanamide]	1 nM	> 64 µg/mL	1 µg/mL (≈ 2.4 µM)	0.25 µg/mL (≈ 0.6 µM)		
CC(CCn1cc(F)c(-c2ccc3c(c2)C(=O)NC3)cc1=O)(C(=O)NO)S(C)(=O)=O (centres unmarked) [Example 50, 4-[5-fluoro-2-oxo-4-(3-oxo-2,3-dihydro-1H-isoindol-5-yl)pyridin-1(2H)-yl]-N-hydroxy-2-methyl-2-(methylsulfonyl)butanamide]	68.2 nM	> 64 µg/mL	> 64 µg/mL	> 64 µg/mL		
CC(CCn1cc(F)c(-c2ccc(C#N)c(F)c2)cc1=O)(C(=O)NO)S(C)(=O)=O (centres unmarked) [Example 58, 4-[4-(4-cyano-3-fluorophenyl)-5-fluoro-2-oxopyridin-1(2H)-yl]-N-hydroxy-2-methyl-2-(methylsulfonyl)butanamide]	2.6 nM	> 64 µg/mL	32 µg/mL (≈ 75.2 µM)	8 µg/mL (≈ 18.8 µM)		
CCOc1cc(-c2cc(=O)n(CCC(C)(C(=O)NO)S(C)(=O)=O)cc2F)ccn1 (centres unmarked) [Example 92, 4-(2′-ethoxy-5-fluoro-2-oxo-4,4′-bipyridin-1(2H)-yl)-N-hydroxy-2-methyl-2-(methylsulfonyl)butanamide]	5.7 nM	> 64 µg/mL	8 µg/mL (≈ 18.7 µM)	8 µg/mL (≈ 18.7 µM)		
CC(CCn1cc(F)c(-c2cnc3ccoc3c2)cc1=O)(C(=O)NO)S(C)(=O)=O (centres unmarked) [Example 72, 4-(5-fluoro-4-furo[3,2-b]pyridin-6-yl-2-oxopyridin-1(2H)-yl)-N-hydroxy-2-methyl-2-(methylsulfonyl)butanamide]	34.8 nM	> 64 µg/mL	64 µg/mL (≈ 151 µM)	32 µg/mL (≈ 75.6 µM)		
CC(CCn1cc(F)c(-c2ccc(F)cc2F)cc1=O)(C(=O)NO)S(C)(=O)=O (centres unmarked) [Example 97, 4-[4-(2,4-difluorophenyl)-5-fluoro-2-oxopyridin-1(2H)-yl]-N-hydroxy-2-methyl-2-(methylsulfonyl)butanamide]	1.2 nM	> 64 µg/mL	4 µg/mL (≈ 9.56 µM)	1 µg/mL (≈ 2.39 µM)		
COc1c(F)cc(-c2cc(=O)n(CCC(C)(C(=O)NO)S(C)(=O)=O)cc2F)cc1F (centres unmarked) [Example 62, 4-[4-(3,5-difluoro-4-methoxyphenyl)-5-fluoro-2-oxopyridin-1(2H)-yl]-N-hydroxy-2-methyl-2-(methylsulfonyl)butanamide]	2 nM and 3.1 nM	> 64 µg/mL	4 µg/mL (≈ 8.92 µM)	2 µg/mL (≈ 4.46 µM)	8 µg/mL	1 µg/mL
CC(CCn1cc(F)c(-c2ccc3c(c2)CCO3)cc1=O)(C(=O)NO)S(C)(=O)=O (centres unmarked) [Example 120, 4-[4-(2,3-dihydro-1-benzofuran-5-yl)-5-fluoro-2-oxopyridin-1(2H)-yl]-N-hydroxy-2-methyl-2-(methylsulfonyl)butanamide]	0.9 nM	> 64 µg/mL	2 µg/mL (≈ 4.71 µM)	1 µg/mL (≈ 2.36 µM)		
